This is an account of results in PMC6757277, “Structural Basis of Glycerophosphodiester Recognition by the Mycobacterium tuberculosis Substrate-Binding Protein UgpB” (ACS Chemical Biology, 2019).

This assay concerns the target Mtb UgpB (Mycobacterium tuberculosis, UniProt P71619). In words: biochemical.

Mtb UgpB, sequence (P71619 entry or part of it): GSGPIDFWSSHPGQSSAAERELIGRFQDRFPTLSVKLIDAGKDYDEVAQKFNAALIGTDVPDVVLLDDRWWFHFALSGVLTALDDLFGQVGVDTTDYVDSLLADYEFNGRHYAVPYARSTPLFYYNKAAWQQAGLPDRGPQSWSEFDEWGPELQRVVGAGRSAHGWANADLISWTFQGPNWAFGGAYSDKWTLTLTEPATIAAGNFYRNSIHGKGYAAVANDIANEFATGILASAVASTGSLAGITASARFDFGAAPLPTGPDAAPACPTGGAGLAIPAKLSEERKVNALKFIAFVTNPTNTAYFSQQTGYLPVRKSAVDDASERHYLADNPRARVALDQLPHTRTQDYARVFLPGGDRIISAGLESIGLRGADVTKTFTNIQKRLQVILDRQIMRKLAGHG

Compound `O=P(O)(O)O[C@H]1[C@H](O)[C@@H](O)[C@H](OP(=O)(O)OC[C@H](O)CO)[C@H](O)[C@@H]1O` [GPI4P, glycerophosphoinositol-4-phosphate] showed a Kd of 290 ± 54.1 µM.

The compound `O=P(O)(OC[C@H](O)CO)O[C@@H]1[C@H](O)[C@H](O)[C@@H](O)[C@H](O)[C@H]1O` [GPI, glycerophosphoinositol] came in with a Kd of 1050 ± 313 µM.

In general, Kd refers to the free concentration of one partner at which half of the binding sites on the other are occupied at equilibrium, for simple one-to-one binding. Lower therefore signals a tighter complex.
